This is an account of results in ChEMBL document CHEMBL4834458, “Diterpenoids with Aromatase Inhibitory Activity from the Rhizomes of Kaempferia elegans” (J Nat Prod, 2021).

Each structure is given as a SMILES string.

The target of series [1] is T1, Aromatase (Homo sapiens, UniProt P11511).
T1 sequence (P11511 whole entry): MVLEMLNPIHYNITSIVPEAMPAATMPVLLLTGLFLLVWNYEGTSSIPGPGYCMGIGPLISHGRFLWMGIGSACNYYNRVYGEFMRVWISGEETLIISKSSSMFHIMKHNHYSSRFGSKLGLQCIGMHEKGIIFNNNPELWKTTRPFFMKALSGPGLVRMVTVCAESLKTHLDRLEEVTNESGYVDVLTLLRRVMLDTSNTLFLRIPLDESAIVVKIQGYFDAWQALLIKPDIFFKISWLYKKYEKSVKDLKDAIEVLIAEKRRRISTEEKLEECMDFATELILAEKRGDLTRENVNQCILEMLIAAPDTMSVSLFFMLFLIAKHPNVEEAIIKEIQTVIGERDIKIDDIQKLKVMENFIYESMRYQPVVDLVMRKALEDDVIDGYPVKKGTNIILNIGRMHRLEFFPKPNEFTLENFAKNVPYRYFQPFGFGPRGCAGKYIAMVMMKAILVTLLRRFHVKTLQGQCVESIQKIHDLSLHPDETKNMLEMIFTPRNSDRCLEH
The series is described as follows: Inhibition of aromatase (unknown origin) at 12.5 uM relative to control.

In series [2] the target is T1, Aromatase. The series is described as follows: Inhibition of aromatase (unknown origin).
The next series deals with HeLa. The series can be described thus: Cytotoxicity against human HeLa cells assessed as reduction in cell viability incubated for 48 hrs by MTT assay. The series is classed as functional, cell-based.
A further series relates to HepG2. The series is described as follows: Cytotoxicity against human HepG2 cells assessed as reduction in cell viability incubated for 48 hrs by MTT assay. The series is classed as functional, cell-based. As to conditions: HepG2, 48 h.
The next series relates to K562. The series is described as follows: Cytotoxicity against human K562 cells assessed as reduction in cell viability incubated for 48 hrs by MTT assay. As to conditions: K562, 48 h. The series is classed as functional, cell-based. (In general: Tetrazolium assays rely on reduction of a dye to a coloured formazan, in cell work by metabolically active cells.)
Series [3] is described as follows: Cytotoxicity against human NCI-H69AR cells assessed as reduction in cell viability incubated for 48 hrs by MTT assay. Format: functional, cell-based.
Another series deals with A549. The series is described as follows: Cytotoxicity against human A549 cells assessed as reduction in cell viability incubated for 48 hrs by MTT assay. The series is classed as functional, cell-based. The conditions noted are these: A549, 48 h.
Another series deals with MDA-MB-231. The series is described as follows: Cytotoxicity against human MDA-MB-231 cells assessed as reduction in cell viability incubated for 48 hrs by MTT assay. The series is classed as functional, cell-based. As to conditions: MDA-MB-231, 48 h.
A further series deals with T47D. The series is described as follows: Cytotoxicity against human T47D cells assessed as reduction in cell viability incubated for 48 hrs by MTT assay. Format: functional, cell-based.
A further series deals with HuCCT-1. The series is described as follows: Cytotoxicity against human HuCC-A1 cells assessed as reduction in cell viability incubated for 48 hrs by MTT assay. The series is classed as functional, cell-based. The conditions noted are these: HuCCT-1, 48 h.
The test system of the next series is MRC5. The series is described as follows: Cytotoxicity against human MRC5 cells assessed as reduction in cell viability incubated for 48 hrs by MTT assay. Format: cell-based. The conditions noted are these: MRC5, 48 h.

In the case of `CC(C)[C@@]12CC3=C([C@@H](CO1)O2)[C@@]1(C)CCCC(C)(C)[C@@H]1CC3`, 12.5 µM produced 26% inhibition at Aromatase [1].

For the molecule `C[C@@H]1OC(=O)C=C2[C@H](O)C[C@H]3C(C)(C)CCC[C@]3(C)[C@]21O`, on Aromatase [1], testing at 12.5 µM gave an inhibition of 25%.

On to `CC(C)c1cc(O)c2c(c1)CC[C@H]1C(C)(C)CCC[C@]21C`, for which the IC50 (as a rule, the concentration that inhibits the measured activity by half) stood at 3.7 µM against Aromatase [2]; 27.2 µM with HeLa; 27.2 µM in the series with HepG2; 27.2 µM in the series on K562; 27.2 µM in [3]; 27.2 µM in the series with A549. Moreover, the 50% inhibitory concentration (IC50) in the series with MDA-MB-231 was 27.2 µM; with T47D, 129 µM; in the series on HuCCT-1, 27.2 µM; in the series on MRC5, 82.1 µM.

`CC(C)C1=CC2=CC[C@H]3C(C)(C)CCC[C@]3(C)[C@H]2[C@H](O)C1`: the inhibition – broadly, the relative decrease from the control value, in per cent – at 12.5 µM on Aromatase [1] stood at 36%.

In the case of `CC(C)c1ccc2c(c1)[C@H](O)C[C@H]1C(C)(C)CCC[C@]21C`, on Aromatase [1], at 12.5 µM the inhibition was 30%.

`C[C@@H]1O[C@]2(C(C)(C)O)C=C3CC[C@H]4C(C)(C)CCC[C@]4(C)[C@@]31OO2` returned an IC50 on Aromatase [2] of 10.7 µM.

As for `CC(C)c1cc(O)c2c(c1)[C@H](O)C[C@H]1C(C)(C)CCC[C@]21C`, half-maximal inhibition against Aromatase [2] (IC50) was put at 7.2 µM.

Take `C=C[C@]1(C)C=C2CC[C@H]3C(C)(C)CCC[C@]3(C)[C@H]2CC1`: on Aromatase [2], half-maximal inhibition (IC50) was put at 10.4 µM.

For the molecule `CC(C)c1ccc2c(c1)CC[C@H]1C(C)(C)CCC[C@]21C`, at Aromatase [1], the inhibition at 12.5 µM turned out to be 44%.

For `C[C@@H]1OC(=O)C=C2[C@H](O)C[C@H]3C(C)(C)CCC[C@]3(C)[C@H]21`, testing at 12.5 µM on Aromatase [1] gave an inhibition of 14%.

For `C[C@H]1C[C@]2(O)O[C@@]1(C)C=C1CC[C@H]3C(C)(C)CCC[C@]3(C)[C@H]12`, at Aromatase [2], the IC50 was found to be 11.8 µM.

`CC(C)[C@@]1(O)CC[C@H]2C(CC[C@H]3C(C)(C)CCC[C@]23C)[C@@H]1O` (stereo partly specified): at 12.5 µM the inhibition on Aromatase [1] was 15%.

As for `C=C[C@@]1(C)CC(=O)C2=C(CC[C@H]3C(C)(C)CCC[C@]23C)C1`, the IC50 against Aromatase [2] stood at 7.9 µM.

Consider `C=C[C@]1(C)C=C2[C@H](O)C[C@H]3C(C)(C)CCC[C@]3(C)[C@H]2CC1`, for which 12.5 µM produced 31% inhibition against Aromatase [1].

In the case of `CC(C)[C@]1(O)C=C2[C@H](O)C[C@H]3C(C)(C)CCC[C@]3(C)[C@H]2C[C@H]1O`, the inhibition at 12.5 µM at Aromatase [1] worked out at 21%.

As for `CC(C)[C@@]1(O)CC[C@H]2C(CC[C@H]3C(C)(C)CCC[C@]23C)[C@H]1O` (stereo partly specified), the inhibition at 12.5 µM against Aromatase [1] was determined as 16%.

Turning to `CC(C)C1=CC(=O)C2=C(CC[C@H]3C(C)(C)CCC[C@]23C)C1=O`, at 12.5 µM the inhibition against Aromatase [1] was 42%.
